The source made the active and inactive calls. The rule behind the calls is not given here.

The test relates to PBMC. As to the kind of experiment: Effect on cell proliferation of human PBMC into human Vgamma9Vdelta2 T cells assessed as decrease in HMBPP response upto 100 uM incubated for 3 days followed by compound washout with recurrent addition of IL-2 on every 3 days measured after 11 days in presence of HMBPP by flow cytometry. Type of test: functional, cell-based. The note with it: time 3.0 day.
On to `Cc1ccc(C/C(=C\COP(=O)(O)OP(=O)(O)O)CO)cc1`, for which the result was Active.
Then `O=P(O)(O)OP(=O)(O)OC/C=C(/CO)Cc1ccccc1`, with “Active”; and `O=P(O)(O)OP(=O)(O)OC/C=C(/CO)Cc1ccc(Br)cc1`, with “Active”.
